The test system of experiment [1] is Candida krusei ATCC 6258. As to the kind of experiment: MIC determination, strain I. Format: cell-based. The settings on record: Pichia kudriavzevii, ATCC6258. On the procedure:
(§1) The antifungal activity of our new azole compounds 1-9 and 24-41 was first evaluated against a panel of seven Candida albicans strains (A-G), three non-albicans Candida strains […], and three Aspergillus strains (K-M) in a concentration range of 0.03-31.2 μg/mL (Table 1). […] For all of our azole derivatives we report their MIC-0 values against C. albicans ATCC 10231 (strain A) and all Aspergillus strains (K-M), which correspond to complete growth inhibition of these fungi. […] The commercially available antifungals AmB, FLC, ITC, POS, and VOR were used as reference drugs for comparison. The MIC values presented for these five control drugs were either tested herein or correspond to our previously published data^5, 16 as indicated in Table 1.
(§2) Antifungal activity in the absence or presence of serum. The antifungal activity of the newly prepared alkylated piperazine/morpholine-azole hybrids 16-28, of intermediate 14 that we used to verify that only final compounds exert antifungal activity, as well as that of alkylated piperazine/morpholine derivatives 1-10 were first evaluated against a panel of seven C. albicans (ATCC 10231 (A), ATCC 64124(R) (B), ATCC MYA-2876(S) (C), ATCC 90819(R) (D), ATCC MYA-2310(S) (E), ATCC MYA-1237(R) (F), and ATCC MYA-1003(R) (G)), three non-albicans Candida (C. glabrata ATCC 2001 (H), C. krusei ATCC 6258 (I), and C. parapsilosis ATCC 22019 (J)), and three Aspergillus (A. flavus ATCC MYA-3631 (K), A. nidulans ATCC 38163 (L), and A. terreus ATCC MYA-3633 (M)) strains using a concentration range of 0.03-31.3 μg/mL (Table 2).
(§3) Commercially available antifungal agents such as AmB, CAS, FLC, and VOR were used as positive controls for comparison. […] It is important to note that all comparisons to follow will be done by using the MIC values reported in μg/mL as the data were collected that way. However, we also present in parentheses in Table 2 the corresponding values in micromolar.
(§4) We used the commercially available antifungal agents such as AmB, caspofungin (CAS), FLC, and VOR as positive controls for comparison. For derivatives 5-16 as well as the reference drugs AmB and CAS, we reported MIC-0 values, which correspond to no visible growth. […] In this manuscript, we performed all activity comparisons by using the MIC values reported in μg/mL (Note: the corresponding MIC values are also provided in μM into parentheses in Tables 1, 2, S1, and S2).

Experiment [2] concerns C. albicans ATCC 90819(R). The experiment is described as follows: MIC determination, strain D. Type of experiment: cell-based, Candida albicans. The settings on record: Candida albicans, ATCC90819. How it is done: as §1, §2, §3, §4
Experiment [3] deals with C. albicans ATCC MYA-2876(S). The experiment is described as follows: MIC determination, strain C. Format: cell-based, Candida albicans. The settings on record: Candida albicans. How it is done:
as §1, §2, §3, §4

The test system of experiment [4] is C. albicans ATCC 90819(R). Particulars: Table 1; strain D; control azoles; previously reported (refs 5, 16); cited from earlier work.
In experiment [5] the test system is Candida glabrata ATCC 2001. The experiment is described as follows: MIC determination, strain H. Format: cell-based. The settings on record: Nakaseomyces glabratus, ATCC2001. How it is done:
as §1, §2, §3, §4

[6] abbreviates: read-out: MIC (MIC-2), in parentheses.

Like-named read-outs stand apart in the source and are kept apart here. Marks after values point to notes of the source that are not given here.

One may read the MIC as the smallest concentration in the dilution series that meets the test's criterion for growth inhibition.

Turning to `C[C@@H](c1ncncc1F)[C@](O)(Cn1cncn1)c1ccc(F)cc1F` [VOR, voriconazole], the MIC in experiment [1] (read-out: MIC (MIC-2)) came out at 0.12 µg/mL; in experiment [1] (setting [6]), 0.34 µM; in experiment [2] (read-out: MIC (MIC-2)), 1.95 µg/mL; in experiment [2] (setting [6]), 5.6 µM; in experiment [3] (read-out: MIC (MIC-2)), 1.95 µg/mL; in experiment [3] (setting [6]) it was 5.6 µM. Besides, the figures for the MIC in experiment [5] (read-out: MIC (MIC-2)) and in experiment [5] (setting [6]) were 0.06 µg/mL and 0.17 µM, respectively. In experiment [4], the “MIC (MIC-2)” value is 1.95^c μg/mL.

The values above are taken from US12103916B2, “Antifungal compounds” (University of Kentucky Research Foundation, priority 2016, dated 2024).
